SMILES strings stand for the structures.

Here are results for 10 molecules from US20110033393A1, “Hydrazone Compounds and Their Use” (priority 2009, published 2011).

The experiment concerns the target T1, human TRPM5 ion channel (Homo sapiens, UniProt Q9NZQ8).
T1 sequence (Q9NZQ8 1-1165): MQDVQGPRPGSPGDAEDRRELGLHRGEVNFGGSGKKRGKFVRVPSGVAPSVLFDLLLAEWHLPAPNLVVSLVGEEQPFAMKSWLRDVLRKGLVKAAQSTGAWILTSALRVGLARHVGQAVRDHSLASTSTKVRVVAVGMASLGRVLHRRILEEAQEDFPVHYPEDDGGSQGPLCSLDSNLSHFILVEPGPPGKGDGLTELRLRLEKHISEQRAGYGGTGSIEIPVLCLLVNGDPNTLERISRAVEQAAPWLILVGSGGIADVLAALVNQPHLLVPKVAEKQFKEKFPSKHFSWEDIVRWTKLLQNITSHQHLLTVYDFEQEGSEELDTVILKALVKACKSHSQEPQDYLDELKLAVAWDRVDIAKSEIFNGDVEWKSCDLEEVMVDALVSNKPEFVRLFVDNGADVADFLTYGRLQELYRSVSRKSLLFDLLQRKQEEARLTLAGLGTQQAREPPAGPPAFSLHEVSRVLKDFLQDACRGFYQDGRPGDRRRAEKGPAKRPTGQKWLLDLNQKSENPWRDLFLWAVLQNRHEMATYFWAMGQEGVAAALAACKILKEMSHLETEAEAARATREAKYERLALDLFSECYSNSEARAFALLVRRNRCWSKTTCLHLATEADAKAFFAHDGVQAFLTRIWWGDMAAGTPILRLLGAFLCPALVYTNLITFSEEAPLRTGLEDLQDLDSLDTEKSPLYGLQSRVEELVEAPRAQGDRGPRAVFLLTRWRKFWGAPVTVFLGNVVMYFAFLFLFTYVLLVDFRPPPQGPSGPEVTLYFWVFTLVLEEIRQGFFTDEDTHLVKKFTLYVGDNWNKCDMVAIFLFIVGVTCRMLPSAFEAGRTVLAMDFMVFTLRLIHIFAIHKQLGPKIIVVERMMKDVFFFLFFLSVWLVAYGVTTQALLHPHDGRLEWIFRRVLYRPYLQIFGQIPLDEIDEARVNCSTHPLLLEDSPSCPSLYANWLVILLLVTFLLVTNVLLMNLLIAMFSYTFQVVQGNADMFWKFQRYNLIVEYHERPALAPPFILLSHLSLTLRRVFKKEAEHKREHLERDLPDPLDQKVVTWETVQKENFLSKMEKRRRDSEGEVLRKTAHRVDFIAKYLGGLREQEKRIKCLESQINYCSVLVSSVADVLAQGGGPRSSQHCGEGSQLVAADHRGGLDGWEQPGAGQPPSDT
Description: FLIPR-based assay for membrane potential and calcium mobilization (TRPM5 inhibiting activity). Particulars: live cells, 30° C., read-out: hTrpM5 IC50. It is filed as cell-based. The procedure:
The activity of compounds of the present invention on human TRPM5 ion channel was measured using the FLIPR-based (fluorescent imaging plate reader) assay for membrane potential and calcium mobilization described in U.S. Patent Application Publication No. 2008/0249189 A1 in live cells, wherein the assay is performed at 30° C. Determinations of affinity and efficacy were derived from measurements of TRPM5 activity over a range of compound concentrations. The concentration range was achieved by 10 serial dilutions (either 2-fold or 3-fold decrements) from a maximum concentration of no greater that 100 μM. Curver fitting was performed on the resulting data to yield concentration-effect functions, from which the half-maximal inhibitory concentration (IC50) was derived for all the tested compounds. The IC50 values were considered to be accurate reflections of affinity between the compounds and TRPM5.
Representative compounds of the present invention have been tested in the FLIPR assay for TRPM5 inhibiting activity, which is described in detail above.
(In general: Calcium flux is commonly read through the fluorescence of an indicator in the cells.)
As to `Cc1cccc2c1c(C)cn2CCC(=O)N/N=C/c1ccc2c(c1)OCCCO2` [Example 45], the half-maximal inhibitory concentration (IC50) (usually the concentration at which inhibition is half-maximal) was found to be 24 nM. For `COc1cc(/C=N/NC(=O)CCn2cc(C)c3c(C)cccc32)ccc1OCc1cccnn1` [Example 19, 3-(3,4-Dimethyl-1H-indol-1-yl)-N′-(3-methoxy-4-(pyridazin-3-ylmethoxy)benzylidene)propanehydrazide] the value was 180 nM; for `COc1cc(/C=N/NC(=O)CCn2cc(C)c3c(C)cccc32)ccc1OCc1cccnc1` [Example 16, 3-(3,4-Dimethyl-1H-indol-1-yl)-N′-(3-methoxy-4-(pyridin-3-ylmethoxy)benzylidene)propanehydrazide], 53 nM. For `O=C(N/N=C/c1ccc2ncccc2n1)[C@@H]1C[C@H]1c1cccc(Cl)c1` (relative stereo) [Example 31, trans-N′-((1,5-Naphthyridin-2-yl)methylene)-2-(3-chlorophenyl)cyclopropanecarbohydrazide] the value was ~50000 nM; for `Cc1cc(/C=N/NC(=O)C2CC2c2ccc(F)cc2)cc2cccnc12` (stereo not drawn) [Example 40, trans-2-(4-Fluorophenyl)-N′-((8-methylquinolin-6-yl)methylene)cyclopropanecarbohydrazide], 510 nM. With `Cc1cc(/C=N/NC(=O)CCn2cc(C)c3c(C)cccc32)cc2cccnc12` [Example 64, 3-(3,4-dimethyl-1H-indol-1-yl)-N′-((8-methylquinolin-6-yl)-methylene)propanehydrazide] the figure was 5 nM; with `COc1cc(/C=N/NC(=O)C2CC2c2cccc(Cl)c2)cc2cccnc12` (stereo not drawn) [Example 30, trans-2-(3-Chlorophenyl)-N′-((8-methoxyquinolin-6-yl)methylene)cyclopropanecarbohydrazide], 45 nM. In the case of `Cc1ccnc2ccc(/C=N/NC(=O)CCn3cc(C)c4ccccc43)cc12` [Example 62, 3-(3-methyl-1H-indol-1-yl)-N′-((4-methylquinolin-6-yl)methylene)-propanehydrazide], the IC50 was 370 nM. For `COc1ccc(/C=N/NC(=O)NCCc2ccccc2)cc1OC` [Example 65, 2-(3,4-dimethoxybenzylidene)-N-phenethylhydrazinecarboxamide] the value was 200 nM; for `COc1ccc(/C=N/NC(=O)CCn2cc(Cl)c3c(C)cccc32)cc1OC` [Example 49, 3-(3-Chloro-4-methyl-1H-indol-1-yl)-N′-(3,4-dimethoxybenzylidene)propanehydrazide], 1.3 nM.
